Counter-ions that a name gives are not always drawn.
The compounds below were run on hESC-derived ECs versus ACL cells (assay: High-throughput screening of LOPAC library, PrestoBlue cell viability, hESC-derived ECs versus ACL cells). Details: not given.
Format: cell-based, human
Experimental: High-throughput screening (HTS). HUAECS (Lonza) and hESC-derived ECs were cultured in EGM-2 medium while human anterior cruciate ligament cells (ACL cells) were cultured in Dulbecco's modified Eagle's medium (DMEM; PAA) supplemented with 10% FBS, 0.2 mM ascorbic acid 2-phosphate magnesium salt (Sigma Aldrich), […] streptomycin and 100 U/mL penicillin (Life Technologies). ACL cells were isolated from patients that have signed an informed consent form, in compliance with the Dutch legislation. The ethical committee of Medisch Spectrum Twente Hospital approved the collection.
The LOPAC library (Sigma-Aldrich) was used to screen embryonic endothelial-specific cytotoxic compounds. The compounds were solubilized in DMSO. The final compound concentration used in the screen was 4.5 μM in a final volume of 200 μL per well (96-well plate). HUAECs, hESC-derived EC and ACL cells were seeded at 16,000 cells/well (HUAECs and hESC-derived ECs) and 5,000 cells/well (ACL cells) and allowed to reach near confluence (approximately two days). After two days, medium was exchanged and test compounds and controls were added to the 96-well plates (all wells contained 0.25% (v/v) DMSO). After 4 days of incubation, cell viability was assessed using a PrestoBlue (Invitrogen) assay. This assay is based on a resazurin-based solution that indicates the reducing power of living cells and therefore measures indirectly their number. For each measurement, cell medium was removed and the PrestoBlue solution (10%) was added for 3 h at 37° C. upon which the absorbance was measured at 560-590 nm.
Disruption of vascular development has been directly correlated with prenatal loss, malformations and neurodevelopmental problems^41-44. […] The library was screened at a single dosage of 4.5 μM in a volume of 200 μL per well of EGM-2 medium, containing 0.25% DMSO (v/v). […] Six compounds (danazol, chlorpromazine hydrochloride, ellipticine, 3′,4′-dichlorobenzamil, fluphenazine dihydrochloride and 7-cyclopentyl-5-(4-phenoxy)phenyl-7H-pyrrolo[2,3-d]pyrimidin-4-ylamine) affected cell viability in both cells by a difference of 20% (FIG. 4B). The six compounds belong to different classes: cell cycle, ion pumps, dopamine pathway, phosphorylation and hormone signaling. The compounds selected from the primary screen were then tested against hESC-derived ECs and HUAECs at eight different concentrations to obtain a dose-response curve (FIG. 4C and FIG. 14).

`N#CC(=C(/N)Sc1ccccc1N)/C(C#N)=C(\N)Sc1ccccc1N` [U0126] was tested, and the “Differences (%) in cell viability (hESC-Derived ECs versus ACL cells)” value (“Differences (%) in cell viability” for short) was 68.9%.

Same assay, conditions: LOPAC screen, 4.5 μM, 4 days of incubation, PrestoBlue assay

Compared with `CCCCCCCCCCCCCCCCCC(=O)NCC(COP(=O)([O-])OCC[N+](C)(C)C)OCC` (racemic) [rac-2-Ethoxy-3-octadecanamido-1-propylphosphocholine], `CC[C@]1(O)C[C@H]2CN(CCc3c([nH]c4ccccc34)[C@@](C(=O)OC)(c3cc4c(cc3OC)N(C=O)[C@H]3[C@@](O)(C(=O)OC)[C@H](OC(C)=O)[C@]5(CC)C=CCN6CC[C@]43[C@@H]65)C2)C1` [Vincristine sulfate] is higher in “Differences (%) in cell viability” value: 56.2% for the first, 89.2% for the second.

Going from `CSc1ccc2c(c1)C(N1CCN(C)CC1)Cc1ccccc1S2` (stereo not drawn) [Methiothepin mesylate] to `CC1(C(=O)O)C2CCC(O2)C1(C)C(=O)O` (stereo not drawn) [Cantharidic Acid], the “Differences (%) in cell viability” value rises from 52.4% to 93.8%.

Compared with `O=C(O)c1ccccc1Nc1cccc(OCc2ccc3ccccc3n2)c1` [SR 2640], `CS(=O)(=O)O.Cc1c(C(=O)c2cccc3ccccc23)c2cccc3c2n1[C@H](CN1CCOCC1)CO3` [(R)-(+)-WIN 55,212-2 mesylate] is higher in “Differences (%) in cell viability” value: 53.0% for the first, 97.7% for the second.

Compared with `Cc1ccc(S(=O)(=O)N[C@@H](Cc2ccccc2)C(=O)CCl)cc1` [N-p-Tosyl-L-phenylalanine chloromethyl ketone], `CC(C)[C@@]1(NC(=O)[C@@H]2C=C3c4cccc5[nH]cc(c45)C[C@H]3N(C)C2)O[C@@]2(O)[C@@H]3CCCN3C(=O)[C@H](Cc3ccccc3)N2C1=O` [Ergocristine] is lower in “Differences (%) in cell viability” value: 63.9% for the first, 52.5% for the second.

Compared with `Cc1nc2n(c(=O)c1CCN1CCC(c3noc4cc(F)ccc34)CC1)CCCC2` [Risperidone], `CC(=O)c1c(O)c(C)c(O)c(Cc2c(O)c3c(c(C(=O)/C=C/c4ccccc4)c2O)OC(C)(C)C=C3)c1O` [Rottlerin] is higher in “Differences (%) in cell viability” value: 56.9% for the first, 61.6% for the second.

Going from `O=c1[nH]c(=O)n([C@H]2C[C@H](O)[C@@H](CO)O2)cc1Br` [5-Bromo-2′-deoxyuridine] to `CCOC(=O)C1=C(C)NC(C)=C(C(=O)OC)C1c1cccc(Cl)c1Cl` (stereo not drawn) [Felodipine], the “Differences (%) in cell viability” value rises from 53.9% to 58.1%.

Compared with `[N-]=[N+]=Nc1ccc(C(=O)CSC[C@H](NC(=O)CC[C@H](N)C(=O)O)C(=O)NCC(=O)O)cc1` [S-(p-Azidophenacyl)glutathione], `N#C/C(=C\c1ccc(O)c(O)c1)C(=O)NCCCNC(=O)/C(C#N)=C/c1ccc(O)c(O)c1` [Tyrphostin AG 537] is lower in “Differences (%) in cell viability” value: 61.3% for the first, 52.3% for the second.

Compared with `CCCN1CCC[C@@H](c2cccc(O)c2)C1.Cl` [S(−)-3PPP hydrochloride], `CN(C)S(=O)(=O)c1ccc2c(c1)/C(=C/c1cc3c([nH]1)CCCC3)C(=O)N2` [SU 6656] is higher in “Differences (%) in cell viability” value: 51.8% for the first, 61.5% for the second.

First: NC(=O)OCC(COC(N)=O)c1ccccc1 [Felbamate]
Second: COc1cc(OC)c(C=C2C(O)=Nc3ccccc32)c(OC)c1 [IC 261]
The “Differences (%) in cell viability” value of the first is lower: 50.5% for the first, 73.0% for the second.

First: CNCC[C@@H](Oc1ccccc1C)c1ccccc1 [Tomoxetine]
Second: COc1ccc(NC(=O)c2ccc(-c3ccc(-c4noc(C)n4)cc3C)cc2)cc1N1CCN(C)CC1 [GR 127935 hydrochloride]
The “Differences (%) in cell viability” value of the first is higher: 68.7% for the first, 66.1% for the second.

First: COc1cccc2c1[C@@H]1CN(CCCCn3c(=O)[nH]c4c(sc5ncc(-c6ccccc6)nc54)c3=O)C[C@@H]1CO2 [Fiduxosin hydrochloride]
Second: C[C@]12C=CC(=O)C=C1CC[C@@H]1C2=CC[C@]2(C)[C@@H](C(=O)CN3CCN(c4cc(N5CCCC5)nc(N5CCCC5)n4)CC3)CC[C@@H]12.O=C(O)/C=C\C(=O)O [U-74389G maleate]
The “Differences (%) in cell viability” value of the first is higher: 58.2% for the first, 51.6% for the second.

Compared with `Cc1scc2c1N(C(=O)CN1CCN(C)CC1)c1ccccc1NC2=O` [Telenzepine dihydrochloride], `CCN(CC)C(C)C(=O)N1c2ccccc2Sc2ccccc21.Cl` (stereo not drawn) [10-(alpha-Diethylaminopropionyl)-phenothiazine hydrochloride] is lower in “Differences (%) in cell viability” value: 68.9% for the first, 56.8% for the second.

First: O=S1(=O)N(CCN2CC=C(c3c[nH]c4cc(F)ccc34)CC2)c2cccc3c2N1CCC3 [LY-367,265]
Second: Cc1nc(-c2ccc(-c3ccc(C(=O)N4CCc5cc6c(cc54)C4(CCN(C)CC4)CO6)cc3)c(C)c2)no1 [SB 224289 hydrochloride]
The “Differences (%) in cell viability” value of the first is lower: 51.1% for the first, 96.7% for the second.

Going from `C[C@@]12C(=O)OC(=O)[C@]1(C)[C@H]1CC[C@@H]2O1` [Cantharidin] to `C[C@H]1O[C@@H](n2cc(F)c(=O)[nH]c2=O)[C@H](O)[C@@H]1O` [5-fluoro-5′-deoxyuridine], the “Differences (%) in cell viability” value falls from 94.3% to 60.8%.

Going from `COc1cc(-c2ccc(=O)[nH]n2)ccc1OC(F)F` [Zardaverine] to `Cl.Cl.OCCN1CCN(CC/C=C2/c3ccccc3Sc3ccc(C(F)(F)F)cc32)CC1` [cis-(Z)-Flupenthixol dihydrochloride], the “Differences (%) in cell viability” value falls from 84.0% to 69.6%.

Compared with `Oc1cc(-c2ccccc2)nc2nc(Cl)ccc12` [7-Chloro-4-hydroxy-2-phenyl-1,8-naphthyridine], `CC(C)(C)c1cc(C=C(C#N)C#N)cc(C(C)(C)C)c1O` [Tyrphostin A9] is higher in “Differences (%) in cell viability” value: 59.1% for the first, 69.5% for the second.

Compared with `CC[C@H]1CN2CCc3cc(OC)c(OC)cc3[C@@H]2C[C@@H]1C[C@H]1NCCc2cc(OC)c(OC)cc21` [Emetine dihydrochloride hydrate], `CSc1ccc2c(c1)N(CCC1CCCCN1C)c1ccccc1S2` (stereo not drawn) [Thioridazine hydrochloride] is lower in “Differences (%) in cell viability” value: 93.4% for the first, 51.6% for the second.

Going from `CC(C)[C@H]1c2ccc(F)cc2CC[C@@]1(CCN(C)CCCc1nc2ccccc2[nH]1)OC(=O)C1CC1` [NNC 55-0396] to (±)-Butaclamol hydrochloride, the “Differences (%) in cell viability” value falls from 98.4% to 53.6%.

First: CC(=O)[C@]1(O)Cc2c(O)c3c(c(O)c2[C@@H](O[C@H]2C[C@H](N)[C@H](O)[C@H](C)O2)C1)C(=O)c1ccccc1C3=O [Idarubicin]
Second: C/C=C(/C)C(=O)O[C@H]1C(C)=C2[C@H]([C@@H]1OC(=O)CCCCCCC)[C@@](C)(OC(C)=O)C[C@H](OC(=O)CCC)[C@@]1(O)[C@H]2OC(=O)[C@@]1(C)O [Thapsigargin]
The “Differences (%) in cell viability” value of the first is lower: 94.0% for the first, 94.8% for the second.

Going from `O=C1Nc2ccccc2/C1=C1/Nc2ccccc2/C1=N\O` [Indirubin-3′-oxime] to `CCn1c(=O)[nH]c2cc(Cl)c(Cl)cc21` [DCEBIO], the “Differences (%) in cell viability” value falls from 85.5% to 73.2%.

Going from `Clc1ccc(C(c2ccc(Cl)cc2)n2cc[n+](CC(OCc3ccc(Cl)cc3Cl)c3ccc(Cl)cc3Cl)c2)cc1` (stereo not drawn) [Calmidazolium chloride] to `C[C@@H]1O[C@@H](O[C@H]2C[C@@H](O)[C@]3(CO)[C@H]4[C@H](O)C[C@]5(C)[C@@H]([C@@H]6COC(=O)C6)CC[C@]5(O)[C@@H]4CC[C@]3(O)C2)[C@H](O)[C@H](O)[C@H]1O` [Dihydroouabain], the “Differences (%) in cell viability” value rises from 96.1% to 97.0%.

Going from `CC(=O)O[C@H]1C(=O)[C@@]2(C)[C@H]([C@H](OC(=O)c3ccccc3)[C@]3(O)C[C@H](OC(=O)[C@H](O)[C@@H](NC(=O)c4ccccc4)c4ccccc4)C(C)=C1C3(C)C)[C@]1(OC(C)=O)CO[C@@H]1C[C@@H]2O` [Taxol] to `C[n+]1cc2c3c(ccc2c2ccc4cc5c(cc4c21)OCO5)OCO3` [Sanguinarine chloride], the “Differences (%) in cell viability” value rises from 78.1% to 96.4%.

First: N#C/C(=C\c1ccc(O)c(O)c1)C(=O)NCc1ccccc1 [Tyrphostin AG 490]
Second: COc1ccc(CCCOC(Cn2ccnc2)c2ccc(OC)cc2)cc1 (stereo not drawn) [SKF 96365]
The “Differences (%) in cell viability” value of the first is lower: 56.3% for the first, 69.8% for the second.

In the case of `COc1cc2c(cc1OC)-c1c/c(=N\c3c(C)cc(C)cc3C)n(C)c(=O)n1CC2` [Trequinsin hydrochloride], the “Differences (%) in cell viability” value is reported as 50.7%.

From US10526580B2, “Differentiated cell population of endothelial cells derived from human pluripotent stem cells, composition, system, kit and uses thereof” (BIOCANT-ASSOCIAÇÃO DE TRANSFERÊNCIA DE TECNOLOGIA, priority 2012, dated 2020)
